Assay results as given in patent US9018173B2, “Materials and methods for suppressing inflammatory and neuropathic pain” (Indiana University Research and Technology Corp., priority 2010, dated 2015).
Residues, ends and D or L forms follow the SMILES beside them.

How the values were obtained:
[1] = tested on: tail kinking and body contortion; assay: Observation of side-effects after i.p. injection in mice; format: in vivo
Description: Referring now to FIG. 24. Biodistribution and side-effects of TAT-CBD3. […] Oxygenated blood was collected from a cardiac puncture. […] The 95% confidence limits are also indicated.
The possible effects of TAT-CBD3 on motor coordination, locomotor function, sedation (rotarod test) and hippocampal-dependent memory (Morris water-maze test) was investigated.

motor coordination = assay: Rotarod test for motor coordination; format: in vivo, mouse (C57BL6); details: 10 and 50 mg/kg i.p.
Experimental: Rotarod test for motor coordination. The rotarod test was performed as described previously (Onyszchuk, G., He, Y. Y., Berman, N. E., & Brooks, W. M. Detrimental effects of aging on outcome from traumatic brain injury: a behavioral, magnetic resonance imaging, and histological study in mice. J. Neurotrauma. 25, 153-171 (2008)) with slight modifications. Briefly, the latency to fall off a rotating rod was measured at two different rotational accelerations (fast and slow). The rotarod device (IITC Life Science, Inc., Woodland Hills, Calif., USA) consists of a metal rod with hard plastic drums (diameter: 1.25 in) in each of five individual lanes. For slow acceleration, the device was accelerated from 1 rpm to 18 rpm over 90 seconds, with each trial lasting a maximum of 120 seconds. For fast acceleration, the device was accelerated from 1 rpm to 30 rpm over 90 seconds, with each trial lasting a maximum of 120 seconds. The trials ended when the mouse (C57BL6) either fell off the rod or clung to the rod as it made one complete rotation. The rotarod tests were performed before the injection to score the baseline latencies for each animal. These trials also served to acclimate the animals to the test paradigm. […] Performance was evaluated 3 days following injection.

[2] = tested on: formalin-induced nocifensive behavior; assay: Formalin test; format: in vivo, rat; details: 30 μM intraplantar, 30 min before formalin
Experimental: Referring now to FIG. 16. TAT-CBD3 reduces acute, inflammatory and neuropathic pain. (FIG. 16A) Time course of number of flinches following subcutaneous (dorsal surface of paw) injection of formalin (2.5%; 50 μl saline) in animals pretreated with peptides (3-100 μM; 20 μl dorsal surface of paw) 30 min before formalin (n=4-10). (FIG. 16B) The effect of peptides on number of flinches on formalin-induced phase 1 (0-10 min) and phase 2 (15-60 min). *, p<0.05 versus formalin-injected animals. (FIG. 16C) Formalin induces paw edema. Paw thickness was measured 1 h after injection of saline, formalin, and formalin+peptides (100 μM). *, p<0.05 versus saline-injected animals. (FIG. 16D) Pretreatment with TAT-CBD3 attenuates capsaicin-evoked nocifensive behavior. Vehicle (0.3% DMSO) or peptides (concentrations as indicated) in saline (40 μL) was instilled corneally and nocifensive behavior noted. […]
Behavioral analyses. […] For the eye-wipe test, vehicle, TAT control or TAT CBD3 peptides (30 μM, 40 μl) were pipetted directly into the right eye and the resulting nocifensive behavior was measured. […] This nocifensive behavior was recorded for five minutes and followed by capsaicin (3 μM; 40 μl saline) application into the pretreated eye. […]

[3] = tested on: cortical layer V pyramidal neurons; assay: Cortical slice recordings of evoked EPSCs; format: cell-based, CD1 mice; details: 10 μM

Molecule | side-effects immediately following injection ([1]; 10 and 50 mg/kg) | tail kinking episodes ([1]; n=7 each condition) | dose giving mild motor impairment relative to dose required to reduce hypersensitivity in vivo ([1]; transient tail kinking and body contortion) | body contortion ([1]; up to 50 mg/kg, n=7) | accelerating rotarod performance (motor coordination) | formalin-induced flinching, phase 1 and phase 2 [2] | paired-pulse ratio (PPR) [3]
CC(C)C[C@H](NC(=O)CNC(=O)[C@H](CCCNC(=N)N)NC(=O)[C@@H]1CCCN1C(=O)[C@@H](NC(=O)CNC(=O)[C@H](CCCNC(=N)N)NC(=O)[C@H](CC(C)C)NC(=O)[C@H](CCC(=O)O)NC(=O)[C@H](C)NC(=O)[C@H](CC(C)C)NC(=O)[C@H](CCCNC(=N)N)NC(=O)[C@H](CO)NC(=O)[C@H](CCCNC(=N)N)NC(=O)[C@H](C)NC(=O)[C@H](CCCNC(=N)N)NC(=O)[C@H](CCCNC(=N)N)NC(=O)[C@H](CCCNC(=N)N)NC(=O)[C@H](CCC(N)=O)NC(=O)[C@H](CCCNC(=N)N)NC(=O)[C@H](CCCNC(=N)N)NC(=O)[C@H](CCCCN)NC(=O)[C@H](CCCCN)NC(=O)[C@H](CCCNC(=N)N)NC(=O)CNC(=O)[C@@H](N)Cc1ccc(O)cc1)C(C)C)C(=O)O [TAT-CBD3] (H-YGRKKRRQRRRARSRLAELRGVPRGL-OH; N-terminus and C-terminus assumed) | A single episode of kinking at the base of the tail and whole body contortion was observed in mice | only a single episode of tail kinking movement was observed in the mice | more than 50 fold | no body contortion was observed in mice | had no effect in the accelerating rotarod test |  | 
ARSRLAELRGVPRGL (CBD3) |  |  |  |  |  | displayed blunted nociceptive behaviors in both phases | increased pair pulse ratios
